Experimental data published in US11752127B2, “Methods and compositions for treatment of anxiety in animals” (CANOPY GROWTH CORPORATION, priority 2019, dated 2023).

Key:
[1] = Blood CBD and 7-COOH-CBD levels pre- and post-car ride (mass spectrometry); format: in vivo, Beagle dogs
Procedure: (§1) Anxiety behavioral data measures were recorded, as was serum cortisol levels (an anxiety/stress-related biomarker), heart rate and blood cannabidiol content. Subjects were dosed once during each arm, approximately four (4) hours prior to the car ride test. Blood samples for measurements of cortisol and CBD were taken on two occasions during each arm. The first was on day 1, a no treatment day. The second was within 10 minutes (±2 minutes) following the car ride. Both blood samples were taken as closely as possible to the same time of day. Heart rate was continuously measured during the car ride. There were seven days of washout between treatment days. For the sake of scheduling, the 16 dogs were tested in two cohorts, with eight (8) dogs tested per cohort day. The test schedule that followed is outlined in Table 2.
Blood was collected for health profiling on day −8 and 2 mL and was placed into each a potassium oxalate/sodium fluoride, SST and K2EDTA tube. Whole blood collections for the purpose of cortisol and cannabidiol analysis were taken on eight occasions. Four (4) ml blood samples were collected from a suitable vein according to standard operating procedure for baseline 1 day prior to the car and 10 minutes (±2 minutes) after each car ride for cortisol and cannabidiol analysis. Prior to the baseline sample, subjects were placed in a quiet metabolic cage for 30 minutes (±2 minutes) for a more accurate reading of cortisol at rest. Two (2) ml blood were placed into a 2 ml SST tube and allowed to set until clotted. Serum was separated by centrifugation (2800-3200 rpm for 10 minutes at room temperature) and removed into a new serum blood tube. One aliquot of serum (0.5 ml) was placed into a cryovial and stored at approximately −80° C. for future analysis as necessary. […] Samples were analysed by mass spectrometry for the presence of cannabidiols and in particular CBD.
Post-car ride CBD levels were analyzed as a function of Dose using non-parametric analysis of variance.
Pre-car ride CBD levels were analyzed as a function of previous Dose using non-parametric analysis of variance. […]

[2] = test system: car ride model of fear and anxiety; assay: Car-ride model of fear and anxiety in dogs (10-minute car ride); format: in vivo, Beagle dogs; settings: for Cortisol response to car ride: differed significantly from baseline
Procedure: A Car-Ride Model for fear and anxiety was used to assess the anxiolytic properties of a cannabidiol formulation on dog subjects. One of the objectives of this study was to determine the anxiolytic effectiveness of orally dosed CBD-enriched cannabidiol formulation at three dose levels, namely at: 4 mg/kg CBD; 12 mg/kg CBD; and 25 mg/kg CBD as compared to a placebo control in a car ride model of fear and anxiety.
Enrollment into the study was based on the subject's baseline activity response to a car ride. Twenty-four (24) Beagle Dogs were screened for car-ride induced elevation of blood cortisol. The initial screening occurred over a 10-day period. Sixteen of the 24 dogs were selected to be used in the subsequent efficacy trial. The schedule of operations for the baseline screen is outlined in Table 1.
The subsequent dose-finding efficacy trial was a blinded pre-clinical trial with sixteen (16) dogs. Dogs were allocated to four treatment groups each containing four (4) dogs based on the baseline response to the car-ride model. In the car-ride model, the dogs were placed in a travel crate secured in the back of a transport vehicle. Anxiety was assessed by monitoring behavior and heart rate during the car ride, and by blood cortisol measures after the car ride. A Williams design was used in which 3 dose levels of the drug and a placebo control were evaluated, with every dog being tested on every condition. Thus, the study had four cycles: four (4) groups of four (4) dogs each, with two (2) males and two (2) females per group, were given four (4) cycles of either one of three increasing doses of a cannabidiol-enriched liquid formulation or the vehicle (medium chain triglyceride solution without cannabidiol), each in a volume of 4 mL. Actives or placebo were administered on the fourth day of each cycle, four (4) hours (±15 minutes) before exposure to a 10-minute car ride in a controlled setting. Each dosing cycle was seven (7) days, so there were seven (7) days between doses.
as §1
Treatment conditions as follows: High Dose: 25 mg/kg CBD; Medium Dose: 12 mg/kg CBD; Low Dose: 4 mg/kg CBD; Placebo control: MCT (Medium Chain Triglyceride) solution. The animals were handled and cared for as similarly as possible throughout the study. The study used a Williams design. The experimental unit were one individual dog and the number of dogs per treatment sequence was four (4), each containing two (2) males and two (2) females.
The study was a blinded pre-clinical trial carried out in a standardized environment. Sixteen (16) dogs (8 males and 8 females) were included in the study. A Williams design, in which all test subjects receive all three dosages and one placebo were used. Four (4) groups of four (4) dogs each, with two (2) males and two (2) females per group, will be given four (4) cycles of either one of three increasing doses of a Cannabidiol-enriched liquid formulation or the vehicle (medium chain triglyceride solution without cannabidiol), each in a volume of 4 mL. Actives or placebo were administered on the fourth day of each cycle, four (4) hours (±15 minutes) before exposure to a 10-minute car ride. […]

[3] = test system: noise-induced model of fear and anxiety; assay: Noise-induced (thunderstorm) model of fear and anxiety in dogs, single dose; format: in vivo, Beagle dogs
Procedure: A Noise-Induced Model for fear and anxiety was used to assess the anxiolytic properties of a cannabidiol formulation on dog subjects. An objective of this study is to determine the anxiolytic effectiveness of an orally dosed CBD enriched cannabinoid formulation at three dose levels (25 mg/kg, 12 mg/kg, and 4 mg/kg) as compared to a placebo control in a noise-induced model of fear and anxiety.
A preliminary health screen including veterinary examinations and CBC/clinical chemistry blood work analysis was first used to select thirty-two (32) Beagle dogs for the Baseline Screening phase of this study. […] A four-arm Williams design was used, with four treatment groups of 4 animals per group. Subjects were allocated to the treatment groups (n=4) balanced for sex, serum cortisol, and behavioural (activity) response. On Days 4, 11, 18, and 25 (n=16), dogs were tested on the thunderstorm procedure after administration of one of three dose levels of test article or placebo. Anxiety was assessed by both live monitoring of specific behaviours and through post-trial monitoring of recorded video files, by continuous recording of heart rate during the test, and by analyzing serum cortisol levels after the test. Subjects were dosed once during each arm of the study, approximately 4 hours prior to the thunderstorm test. Blood was taken twice during each arm of the study including baseline phase; once for the purpose of determining resting cortisol levels, collected two days before thunderstorm procedures, and once for the purpose of determining post-thunderstorm cortisol levels as well as blood levels CBD and 7-COOH-CBD, collected 5 minutes (±2 minutes) following the test. Both blood collections were taken at about same time of day. There was a 6-day washout period between treatment days for all subjects.
On the day of testing, each group received a single dose of their assigned treatment according to Table 7 followed by a 6-day washout period prior to the next assessment Animals were dosed 4 hours (±10 minutes) prior to each thunderstorm assessment, at the same time of day on each dosing day. Subjects received either placebo (MCT oil) or CBD extract diluted to the correct concentration of either 4, 12 or 25 mg/kg with appropriate volume of MCT oil to a final volume of 4 mL for each dose. The test article was administered orally by syringe with attention to complete delivery and retention of the intended dose according to standard operating procedures. In the event that a subject vomited or regurgitated within the first 30 minutes of administration, the product was re-administered and time of re-dose was recorded. […]
The thunderstorm test was performed on Study Day −5, 4, 11, 18, and 25; this took place in the open field arena. During the 9-minute task, the first three minutes was designated as the pre-thunder interval, during which the dogs were allowed to freely explore the room in the absence of any external stimuli. During minutes 4-6 (thunder interval) a recorded thunderstorm track was played over a stereo system at approximately 105 dB. Animal behaviour was audio and video recorded for a total of 9 minutes and the following parameters assessed:
1. Distance travelled (m): the distance the animal moves within the room will be tracked and recorded in meters.
2. […] All other behaviours were considered “active” behaviours.
No stimuli were provided over the last three minutes (minutes 7-9). All behavioural parameters were measured as described for the open field test. Video files of each session were recorded to DVD and archived with the study files. […]

[4] = test system: thunderstorm noise-induced model of anxiety; assay: Thunderstorm noise-induced model of anxiety after chronic (28-day) CBD administration; format: in vivo, dogs
Procedure: The present study was conducted to evaluate the potential antianxiety effects of CBD after chronic administration using a thunderstorm model of anxiety. A placebo-controlled 28-day CBD dosing, behavioral and safety study was conducted in which the anti-anxiety behavioral effects of chronic CBD were evaluated after 7 and 21 days of CBD administration. Anxiety-related behavioral assessments were conducted using a thunderstorm noise-induced model of anxiety. Four different doses of CBD isolate (1, 2, 4 and 12 mg CBD/kg dog's body weight) were administered orally, as a liquid, once a day to fasted dogs. The primary anti-anxiety measures included blood cortisol levels, heart rate, distance traveled, head movements, global anxiety and scanning behavior.

[5] = Phase 1, 12 mg/kg CBD oral, n=4 dogs
[6] = Phase 1, 25 mg/kg CBD oral, n=4 dogs
[7] = all four phases combined, 25 mg/kg CBD oral, n=16 dogs, p=0.05

SMILES: C=C(C)[C@@H]1CCC(C(=O)O)=C[C@H]1c1c(O)cc(CCCCC)cc1O [7-COOH-CBD]
- 7-COOH-CBD levels across the 4 dose levels ([1]; post-car ride, repeated measures ANOVA): highly significant effect of dose

SMILES: C=C(C)[C@@H]1CCC(C)=C[C@H]1c1c(O)cc(CCCCC)cc1O [CBD, cannabidiol]
- Dogs that lay down during the 10-minute car ride ([2]; Phase 1, 2 of 4 dogs at each of 4, 12, or 25 mg/kg CBD oral, placebo 0 of 4): 50%
- Number of dogs across the CBD treatments who lay down during the car ride ([2]; Phase 1, CBD 4, 12, 25 mg/kg combined, placebo none of 4): 6 of 12 dogs
- Mean heart rate, effect of treatment ([2]; baseline, placebo, 4, 12 and 25 mg/kg oral, pre-test, min 1-5, min 5-10 of car ride, repeated measures ANOVA): no other significant main effects or interactions
- Post-car ride cortisol levels in female dogs ([2]; female dogs, CBD 4, 12, 25 mg/kg oral 4 h before car ride (FIG. 11)): decrease in cortisol levels
- Cortisol response to car ride ([2]; high dose 25 mg/kg CBD oral): more effective in reducing the cortisol response than the placebo and low dose treatments
- Cortisol response to car ride ([2]; medium dose 12 mg/kg CBD oral): more effective in reducing the cortisol response than the placebo and low dose treatments
- Pre-car ride CBD levels as a function of previous dose ([1]; 7 days after previous dose, repeated measures ANOVA, 0.02 level): Previous dose effect was significant
- Post-car ride CBD levels as a function of dose ([1]; oral 4, 12, 25 mg/kg CBD or placebo 4 h before car ride, non-parametric analysis of variance, p=0.0000): highly significant dose effect
- Distance travelled post-thunder (minutes 7-9), placebo vs CBD ([3]; 25 mg/kg oral 4 h before test, p=0.0445, LMM with treatment and order): significantly larger with placebo than 25 mg/kg
- Inactivity frequency post-thunder, placebo vs CBD ([3]; 25 mg/kg oral, p=0.0245, LMM with treatment and order): significantly smaller with placebo than 25 mg/kg
- Activity during minutes 1-3 of conditioned anxiety testing ([3]; CBD 4, 12, 25 mg/kg vs placebo): no significant differences
- Distance travelled during the 3-minute post-thunder interval (mean±SD) [3, 5]: 3.9±3.9 m
- Reduction of distance travelled during the 3-minute post-thunder interval vs placebo [3, 5]: 72%
- Distance travelled during the 3-minute post-thunder interval (mean±SD) [3, 6]: 5.5±4.0 m
- Distance travelled during the 3-minute thunderstorm noise (mean±SD) [3, 6]: 17.0±8.1 m
- Reduction of distance travelled during the 3-minute post-thunder interval vs placebo [3, 6]: 61%
- Reduction of distance travelled during the 3-minute thunderstorm noise vs placebo [3, 6]: 29%
- Distance travelled during the 3-minute post-thunder interval (mean±SD) [3, 7]: 3.5±3.9 m
- Reduction of distance travelled during the 3-minute post-thunder interval vs placebo [3, 7]: 65%
- Inactivity, effect of dose ([3]; repeated measures ANOVA, pre-thunder, thunder, post-thunder, p value for dose effect 0.762): no other significant main effects or interactions
- Cortisol, day 21 vs day 7 ([4]; 1 and 2 mg CBD/kg oral once a day): greater decrease in cortisol on day 21 than day 7
- Visual scanning ([4]; Day 7, 1 mg/kg): most reduced
- Global Anxiety Scores during thunder-noise ([4]; after 7 and 21 days of treatment, all groups): decreased
- Thunderstorm-induced body movements ([4]; chronic CBD administration): generally decreased
- Heart rate ([4]; chronic CBD treatment 1, 2, 4, 12 mg/kg oral once a day): not affected
- Global Anxiety Scores during thunder-noise, group with greatest decrease ([4]; day 7, 2 mg/kg): greatest decreases
- Head movements ([4]; day 7, two lowest CBD treatment groups (1 and 2 mg/kg)): decreased by day 7
- Global Anxiety Scores during thunder-noise, groups with greatest decrease ([4]; day 21, 1, 2 and 4 mg/kg): greatest decreases
- Visual scanning ([4]; day 21, 1 and 2 mg/kg): most reduced
- Head movements ([4]; day 21, all treatment groups): decline in head movements
- Cortisol ([4]; lowest 3 doses (1, 2, 4 mg/kg) oral once a day, days 7 and 21): decline in cortisol
- Anti-anxiety effects (stress biomarker, body movements, visual scanning, global anxiety scores) ([4]; three lower CBD doses (1, 2, 4 mg/kg) oral once a day): observable anti-anxiety effects
